Several values for one entry are separate records, joined by “and”; a condition that tells them apart may be missing. Equal entries are not always repeated.
Tests used:
[1] = FIG. 12
Description: Table printed on a drawing sheet, FIG. 12
The patent's description of the figure: FIG. 12 is a table of urine PK parameters for Cohorts 8 to 10 on Day 1 of the treatment period in accordance with Example 4.
First reader's note: Per the description these are urine PK parameters for Cohorts 8 to 10 on Day 1; each column is one dose group.

[2] = FIG. 13
Description: Table printed on a drawing sheet, FIG. 13
The patent's description of the figure: FIG. 13 is a table of urine PK parameters for Cohorts 8 to 10 on Day 14 of the treatment period in accordance with Example 4.
First reader's note: Per the description these are urine PK parameters for Cohorts 8 to 10 on Day 14; each column is one dose group.

SMILES: CONC(=O)Nc1ccc(-c2sc3c(c2CN(C)C)c(=O)n(-c2ccc(OC)nn2)c(=O)n3Cc2c(F)cccc2F)cc1 [Compound 1, N-(4-(1-(2,6-difluorobenzyl)-5-((dimethylamino)methyl)-3-(6-methoxy-3-pyridazinyl)-2,4-dioxo-1,2,3,4-tetrahydrothieno[2,3-d]pyrimidin-6-yl)phenyl)-N′-methoxyurea]
- CLr (L/hr) | Mean [1]: 7.1595 L/h and 6.7303 L/h and 7.7148 L/h
- Fe (%) | Mean [1]: 0.639% and 0.938% and 1.209%
- Ae (0-24) (ng) | Median [2]: 141057.00 ng
- CLr (L/hr) | Mean [2]: 6.4821 L/h and 6.7992 L/h and 6.8776 L/h
- Fe (%) | Mean [2]: 1.335% and 1.930% and 1.955%
